What was measured:
[1] = Pharmacokinetics of exemestane, additional 21 patients; type: in vivo; conditions: female, human, plasma, oral
advanced breast cancer = conditions: in combination with exemestane; cited from earlier work

Compound: C=C1C[C@@H]2[C@H](CC[C@]3(C)C(=O)CC[C@@H]23)[C@@]2(C)C=CC(=O)C=C12 [Exemestane]
- Tmax [1]: 3.95 h
- half-life [1]: 5.68 h
- AUC(0-t) ([1]; 25 mg): 54.6 ng·h/mL
- Cmax ([1]; 25 mg): 17 ng/mL
- Tmax ([1]; 25 mg): 1.02 h
- half-life ([1]; 25 mg): 6.24 h

Compound: Nc1cc(F)ccc1NC(=O)c1ccc(CNC(=O)/C=C/c2cccnc2)cc1 [chidamide]
- Median PFS (advanced breast cancer): 7.4 months
- Neutropenia, patients (advanced breast cancer): 51%
- Thrombocytopenia, patients (advanced breast cancer): 28%

Reference: paper PMC8484140 (Targeted Oncology, 2021)
